Test results as given in patent US20060270638A1 (Wyeth, priority 2005, published 2006).
Entries after “also recorded” stand apart in the source; their conditions may differ.

Assays:
[1] = for plasma concentrations following tigecycline coadministration: versus warfarin 25 mg alone, FIG. 1, FIG. 2; for increase of exposure (AUC): warfarin given with a therapeutic regimen of tigecycline
Description: (§1) This is an open-label, nonrandomized, inpatient/outpatient, 2-period, 2-treatment study performed with healthy subjects at a single investigational site.
The tubes are centrifuged within 15 minutes of collection at approximately 1000 g for about 10 minutes. The separated plasma is then transferred to a watertight, labeled polypropylene tube and stored frozen in an upright position at −70° C. or colder until shipped.
The apparent terminal-phase disposition rate constant (λz) is estimated by a log-linear regression of the last 2 to 5 observed serum concentrations that are determined to be in the log-linear elimination phase by visual inspection. […] The area under the concentration-time curve (AUCT) to the last observable concentration (CT) at time T is calculated by using the log-trapezoidal rule for decreasing concentrations and the linear-trapezoidal rule for increasing concentrations, and the total AUC is estimated by AUC=AUCT+CT/λz. The oral-dose clearance (Cl/F) is calculated as dose/AUC, and the apparent terminal-phase volume of distribution (Vz/F) is estimated as Vz/F═[Cl/F]/λz.

[2] = Safety in healthy subjects of the drug interaction study; format: in vivo, human (healthy subjects); conditions: single 25-mg oral warfarin alone, multiple 50-mg IV tigecycline, and combined
Description: as §1

[3] = Tigecycline steady-state serum pharmacokinetics, alone and with warfarin; format: in vivo, human (healthy subjects)
Description: Blood tubes for tigecycline analysis are placed immediately on ice until a clot forms.
Thus, the peak concentration (Cmax) and the time to peak concentration (tmax) are taken directly from the observed data. […] Systemic clearance (Cl) is calculated as dose/AUC, and it is presented both corrected and uncorrected for body weight.

[4] = system: international normalized ratio (INR); conditions: in vivo; cited from earlier work
[5] = single 25-mg oral dose of warfarin, Mean ± SD
[6] = combination versus warfarin alone

With `CC(=O)CC(c1ccccc1)c1c(O)c2ccccc2oc1=O` (racemic) [Warfarin, 3-(α-acetonylbenzyl)-4-hydroxycoumarin] the “INR AUC0-[…]” value (prothrombin time (INR); [5]) was 216 ± 14 h, the INRmax (prothrombin time (INR); [5]) was 1.8 ± 0.3 and the “tmax (time to maximum INR value)” value (prothrombin time (INR); [5]) was 1800 ± 540 min. For the same compound, the “R-warfarin AUC” value ([1]; human, in vivo, po) was 73000 ± 18000 ng·h/mL, the “R-warfarin Cl/F” value ([1]; human, in vivo, po) was 0.0717 ± 0.013 mL/min/kg and the “S-warfarin AUC” value ([1]; human, in vivo, po) was 47000 ± 18000 ng·h/mL. The “S-warfarin Cl/F” value ([1]; human, in vivo, po) was 0.117 ± 0.0317 mL/min/kg and the safety-related concerns [2] was “No safety-related concerns”.

In the case of `CC(=O)C[C@H](c1ccccc1)c1c(O)c2ccccc2oc1=O` [R-warfarin], the “plasma concentrations following tigecycline coadministration” value [1] is reported as “higher” and the “increase of exposure (AUC)” value [1] is reported as 68%.

For `CC(=O)C[C@@H](c1ccccc1)c1c(O)c2ccccc2oc1=O` [S-warfarin], the “plasma concentrations following tigecycline coadministration” value [1] was “higher” and the “increase of exposure (AUC)” value [1] was 29%.

For `CN(C)c1cc(NC(=O)CNC(C)(C)C)c(O)c2c1C[C@H]1C[C@H]3[C@H](N(C)C)C(O)=C(C(N)=O)C(=O)[C@@]3(O)C(O)=C1C2=O` [Tigecycline, (4S,4aS,5aR,12aS)-9-[2-(tert-butylamino)acetamido]-4,7-bis(dimethylamino)-1,4,4a,5,5a,6,11,12a-octahydro-3,10,12,12a-tetrahydroxy-1,11-dioxo-2-naphthacenecarboxamide], the “mean INR AUC0-[…] following the combination treatment” value (prothrombin time (INR); [6]) was “unchanged”, the “mean INRmax lower following the combination treatment” value (prothrombin time (INR); [6]) was 10% and the “effect on warfarin's anticoagulant profile (measured by INR)” value (prothrombin time (INR); therapeutic regimen of tigecycline with warfarin) was “does not significantly alter; also recorded: did not significantly alter”. For the same compound, the “effect on oral-dose clearance of R-warfarin and S-warfarin” value ([1]; coadministration of the therapeutic regimen of tigecycline) was “significantly decreased”, the “mean steady-state systemic clearance and exposure (Cmax, C12h, AUC) versus monotherapy mean values” ([3]; following coadministration of warfarin) was at most 10% and the Tmax ([3]; human, intravenous, 50 mg, tigecycline in serum, steady state, Mean ± SD) was 30 min. It also gave an AUC(0-t) ([3]; human, intravenous, 50 mg, tigecycline in serum, steady state, Mean ± SD, read-out: AUC0-12 h) of 2100 ± 514 ng·h/mL, a concentration at 12 h ([3]; human, intravenous, 50 mg, tigecycline in serum, steady state, Mean ± SD, read-out: C12 h) of 109 ± 28 ng/mL and a Cmax ([3]; human, tigecycline in serum, steady state, 50 mg IV every 12 h, Mean ± SD) of 886 ± 202 ng/mL. For the same compound, the systemic clearance ([3]; tigecycline intravenous clearance, steady state, Mean ± SD) was 5.17 ± 1.2 mL/min/kg and the safety-related concerns [2] was “No safety-related concerns”.

In the case of `CN(C)c1ccc(O)c2c1C[C@H]1C[C@H]3[C@H](N(C)C)C(O)=C(C(N)=O)C(=O)[C@@]3(O)C(O)=C1C2=O` [minocycline], the compatibility with warfarin [4] is given as “demonstrated incompatibility”.
